We go through 22 molecules from the NIST ThermoML archive (doi:10.1016/j.jct.2016.01.017).

This series in a line: activity coefficient (dimensionless); of the first substance listed, at infinite dilution; xn = mol fraction of the nth substance listed. Conditions: 100 kPa, Liquid, Chromatography, x1 = 0.

± gives the expanded uncertainty stated by the source.

As for `C=CCCCCCCCC` [1-decene] + CCCC[n+]1ccc(C#N)cc1.O=S(=O)([N-]S(=O)(=O)C(F)(F)F)C(F)(F)F, the activity coefficient (308.15 K) stood at 59.4 ± 5.1; the activity coefficient (318.15 K) is 57.3 ± 5; the activity coefficient (328.15 K) amounted to 55.2 ± 4.8; the activity coefficient (338.15 K) was found to be 53.5 ± 4.6; the activity coefficient (348.15 K) stood at 51.8 ± 4.5; the activity coefficient (358.15 K) worked out at 50.4 ± 4.4. Also, the activity coefficient (368.15 K) was 49 ± 4.2.
In the case of `C=C(C)c1ccccc1` [(1-methylethenyl)benzene] + CCCC[n+]1ccc(C#N)cc1.O=S(=O)([N-]S(=O)(=O)C(F)(F)F)C(F)(F)F, the activity coefficient by setting is: (308.15 K) 1.94 ± 0.17; (318.15 K) 2.09 ± 0.18; (328.15 K) 2.24 ± 0.19; (338.15 K) 2.4 ± 0.21; (348.15 K) 2.55 ± 0.22; (358.15 K) 2.7 ± 0.23. Besides, the activity coefficient (368.15 K) stood at 2.86 ± 0.25.
As for `CC1CCCCC1` [methylcyclohexane] + CCCC[n+]1ccc(C#N)cc1.O=S(=O)([N-]S(=O)(=O)C(F)(F)F)C(F)(F)F, the activity coefficient runs as follows: (308.15 K) 23.4 ± 2; (318.15 K) 21.8 ± 1.9; (328.15 K) 20.4 ± 1.8; (338.15 K) 19.1 ± 1.7; (348.15 K) 18 ± 2; (358.15 K) 17.1 ± 1.5. Further, the activity coefficient (368.15 K) came to 16.2 ± 1.4.
For `CC(C)c1ccccc1` [isopropylbenzene] + CCCC[n+]1ccc(C#N)cc1.O=S(=O)([N-]S(=O)(=O)C(F)(F)F)C(F)(F)F, the activity coefficient was 4.04 ± 0.35 (308.15 K); 4.13 ± 0.36 (318.15 K); 4.22 ± 0.36 (328.15 K); 4.31 ± 0.37 (338.15 K); 4.39 ± 0.38 (348.15 K); 4.47 ± 0.39 (358.15 K). For the same molecule, the activity coefficient (368.15 K) turned out to be 4.56 ± 0.39.
Consider `c1ccncc1` [pyridine] + CCCC[n+]1ccc(C#N)cc1.O=S(=O)([N-]S(=O)(=O)C(F)(F)F)C(F)(F)F, for which the activity coefficient by setting is: (308.15 K) 0.47 ± 0.044; (318.15 K) 0.5 ± 0.046; (328.15 K) 0.53 ± 0.048; (338.15 K) 0.56 ± 0.05; (348.15 K) 0.591 ± 0.052; (358.15 K) 0.62 ± 0.054. The activity coefficient (368.15 K) worked out at 0.65 ± 0.056.
For the molecule `CCCOCCC` [dipropyl ether] + CCCC[n+]1ccc(C#N)cc1.O=S(=O)([N-]S(=O)(=O)C(F)(F)F)C(F)(F)F, the activity coefficient is, setting by setting: (308.15 K) 8.88 ± 0.77; (318.15 K) 8.84 ± 0.76; (328.15 K) 8.83 ± 0.76; (338.15 K) 8.78 ± 0.76; (348.15 K) 8.75 ± 0.76; (358.15 K) 8.73 ± 0.75. Moreover, under “368.15 K”, the activity coefficient came out at 8.71 ± 0.75.
In the case of `CCCO` [propan-1-ol] + CCCC[n+]1ccc(C#N)cc1.O=S(=O)([N-]S(=O)(=O)C(F)(F)F)C(F)(F)F, the activity coefficient (308.15 K) worked out at 2.38 ± 0.21; the activity coefficient (318.15 K) was 2.23 ± 0.19; the activity coefficient (328.15 K) came to 2.1 ± 0.18; the activity coefficient (338.15 K) was 1.98 ± 0.17; the activity coefficient (348.15 K) stood at 1.88 ± 0.16; the activity coefficient (358.15 K) stood at 1.79 ± 0.15. Moreover, where the note is “368.15 K”, the activity coefficient turned out to be 1.7 ± 0.14.
Consider `CCC(=O)OC` [methyl propanoate] + CCCC[n+]1ccc(C#N)cc1.O=S(=O)([N-]S(=O)(=O)C(F)(F)F)C(F)(F)F, for which the activity coefficient amounted to 0.8 ± 0.067 (308.15 K); 0.855 ± 0.071 (318.15 K); 0.905 ± 0.075 (328.15 K); 0.956 ± 0.079 (338.15 K); 1.01 ± 0.08 (348.15 K); 1.06 ± 0.09 (358.15 K). The activity coefficient (368.15 K) amounted to 1.11 ± 0.09.
Consider `C#CCCCC` [1-hexyne] + CCCC[n+]1ccc(C#N)cc1.O=S(=O)([N-]S(=O)(=O)C(F)(F)F)C(F)(F)F, for which the activity coefficient amounted to 4.81 ± 0.41 (308.15 K); 4.91 ± 0.42 (318.15 K); 5.01 ± 0.43 (328.15 K); 5.1 ± 0.44 (338.15 K); 5.19 ± 0.45 (348.15 K); 5.28 ± 0.46 (358.15 K). In addition, the activity coefficient (368.15 K) was determined as 5.36 ± 0.46.
As to `CCC(C)(C)OC` [2-methoxy-2-methylbutane] + CCCC[n+]1ccc(C#N)cc1.O=S(=O)([N-]S(=O)(=O)C(F)(F)F)C(F)(F)F, the activity coefficient (308.15 K) was 4.33 ± 0.37; the activity coefficient (318.15 K) was 4.48 ± 0.39; the activity coefficient (328.15 K) came to 4.62 ± 0.4; the activity coefficient (338.15 K) is 4.76 ± 0.41; the activity coefficient (348.15 K) was 4.88 ± 0.42; the activity coefficient (358.15 K) was found to be 5.01 ± 0.43. Also, the activity coefficient (368.15 K) turned out to be 5.13 ± 0.44.
As for `C=CCCCC` [hex-1-ene] + CCCC[n+]1ccc(C#N)cc1.O=S(=O)([N-]S(=O)(=O)C(F)(F)F)C(F)(F)F, the activity coefficient by setting is: (308.15 K) 14.1 ± 1.2; (318.15 K) 13.8 ± 1.2; (328.15 K) 13.5 ± 1.2; (338.15 K) 13.2 ± 1.1; (348.15 K) 12.9 ± 1.1; (358.15 K) 12.7 ± 1.1. Also, the activity coefficient (368.15 K) is 12.5 ± 1.1.
Take `CCC(=O)CC` [pentan-3-one] + CCCC[n+]1ccc(C#N)cc1.O=S(=O)([N-]S(=O)(=O)C(F)(F)F)C(F)(F)F: the activity coefficient (308.15 K) turned out to be 0.697 ± 0.06; the activity coefficient (318.15 K) came to 0.746 ± 0.063; the activity coefficient (328.15 K) worked out at 0.792 ± 0.066; the activity coefficient (338.15 K) turned out to be 0.84 ± 0.07; the activity coefficient (348.15 K) amounted to 0.889 ± 0.074; the activity coefficient (358.15 K) turned out to be 0.936 ± 0.077. Besides, for the setting “368.15 K”, the activity coefficient is 0.984 ± 0.081.
On to `c1ccccc1` [benzene] + CCCC[n+]1ccc(C#N)cc1.O=S(=O)([N-]S(=O)(=O)C(F)(F)F)C(F)(F)F, for which the activity coefficient (308.15 K) worked out at 1.07 ± 0.09; the activity coefficient (318.15 K) is 1.12 ± 0.09; the activity coefficient (328.15 K) amounted to 1.17 ± 0.1; the activity coefficient (338.15 K) was 1.22 ± 0.1; the activity coefficient (348.15 K) came to 1.28 ± 0.11; the activity coefficient (358.15 K) stood at 1.32 ± 0.11. For the same molecule, for the setting “368.15 K”, the activity coefficient is 1.38 ± 0.12.
Regarding `CCCCCCC` [heptane] + CCCC[n+]1ccc(C#N)cc1.O=S(=O)([N-]S(=O)(=O)C(F)(F)F)C(F)(F)F, the activity coefficient reads like this: (308.15 K) 45.8 ± 4; (318.15 K) 42.5 ± 3.7; (328.15 K) 39.8 ± 3.4; (338.15 K) 37.4 ± 3.2; (348.15 K) 35.3 ± 3.1; (358.15 K) 33.5 ± 2.9. Under “368.15 K”, the activity coefficient was found to be 31.7 ± 2.7.
In the case of `CCCCCCCCC` [nonane] + CCCC[n+]1ccc(C#N)cc1.O=S(=O)([N-]S(=O)(=O)C(F)(F)F)C(F)(F)F, the activity coefficient reads like this: (308.15 K) 92.9 ± 8; (318.15 K) 85.9 ± 7.4; (328.15 K) 79.8 ± 6.9; (338.15 K) 74.1 ± 6.4; (348.15 K) 69.4 ± 6; (358.15 K) 65.3 ± 5.7. In addition, the activity coefficient (368.15 K) was determined as 61.5 ± 5.3.
Take `CCCCCCCC` [octane] + CCCC[n+]1ccc(C#N)cc1.O=S(=O)([N-]S(=O)(=O)C(F)(F)F)C(F)(F)F: the activity coefficient (308.15 K) was determined as 65 ± 5.6; the activity coefficient (318.15 K) came out at 59.9 ± 5.2; the activity coefficient (328.15 K) was determined as 55.3 ± 4.8; the activity coefficient (338.15 K) turned out to be 51.3 ± 4.4; the activity coefficient (348.15 K) was determined as 47.9 ± 4.1; the activity coefficient (358.15 K) was found to be 45 ± 4. Under “368.15 K”, the activity coefficient turned out to be 42.4 ± 3.7.
On to `CCCCCCCCCC` [decane] + CCCC[n+]1ccc(C#N)cc1.O=S(=O)([N-]S(=O)(=O)C(F)(F)F)C(F)(F)F, for which the activity coefficient (308.15 K) came out at 124 ± 11; the activity coefficient (318.15 K) came to 115 ± 10; the activity coefficient (328.15 K) is 107 ± 9; the activity coefficient (338.15 K) was found to be 99.8 ± 8.6; the activity coefficient (348.15 K) is 93.8 ± 8.1; the activity coefficient (358.15 K) is 88.2 ± 7.6. The activity coefficient (368.15 K) came out at 83.6 ± 7.2.
For the molecule `CC(C)=O` [acetone] + CCCC[n+]1ccc(C#N)cc1.O=S(=O)([N-]S(=O)(=O)C(F)(F)F)C(F)(F)F, the activity coefficient is, setting by setting: (308.15 K) 0.377 ± 0.039; (318.15 K) 0.403 ± 0.04; (328.15 K) 0.427 ± 0.042; (338.15 K) 0.453 ± 0.043; (348.15 K) 0.479 ± 0.045; (358.15 K) 0.505 ± 0.046. Also, for the setting “368.15 K”, the activity coefficient turned out to be 0.531 ± 0.048.
`CC(C)CC(C)(C)C` [2,2,4-trimethylpentane] + CCCC[n+]1ccc(C#N)cc1.O=S(=O)([N-]S(=O)(=O)C(F)(F)F)C(F)(F)F: the activity coefficient (308.15 K) amounted to 46.5 ± 4; the activity coefficient (318.15 K) was 42.9 ± 3.7; the activity coefficient (328.15 K) stood at 39.8 ± 3.4; the activity coefficient (338.15 K) worked out at 37 ± 3.2; the activity coefficient (348.15 K) worked out at 34.7 ± 3; the activity coefficient (358.15 K) worked out at 32.5 ± 2.8. Besides, the activity coefficient (368.15 K) came to 30.7 ± 2.7.
For `C1=CCCCC1` [cyclohexene] + CCCC[n+]1ccc(C#N)cc1.O=S(=O)([N-]S(=O)(=O)C(F)(F)F)C(F)(F)F, the activity coefficient was found to be 7.51 ± 0.65 (308.15 K); 7.4 ± 0.64 (318.15 K); 7.28 ± 0.63 (328.15 K); 7.19 ± 0.62 (338.15 K); 7.1 ± 0.61 (348.15 K); 7.1 ± 0.61 (358.15 K). Besides, the activity coefficient (368.15 K) was determined as 6.9 ± 0.6.
With `C1CCOC1` [tetrahydrofuran] + CCCC[n+]1ccc(C#N)cc1.O=S(=O)([N-]S(=O)(=O)C(F)(F)F)C(F)(F)F, the activity coefficient (308.15 K) was 0.622 ± 0.054; the activity coefficient (318.15 K) is 0.661 ± 0.057; the activity coefficient (328.15 K) is 0.701 ± 0.06; the activity coefficient (338.15 K) came to 0.742 ± 0.063; the activity coefficient (348.15 K) is 0.779 ± 0.065; the activity coefficient (358.15 K) was found to be 0.818 ± 0.068. In addition, the activity coefficient (368.15 K) amounted to 0.858 ± 0.071.
For the molecule `C#CCCC` [1-pentyne] + CCCC[n+]1ccc(C#N)cc1.O=S(=O)([N-]S(=O)(=O)C(F)(F)F)C(F)(F)F, the activity coefficient by setting is: (308.15 K) 3.4 ± 0.29; (318.15 K) 3.48 ± 0.3; (328.15 K) 3.56 ± 0.31; (338.15 K) 3.64 ± 0.31; (348.15 K) 3.7 ± 0.3; (358.15 K) 3.77 ± 0.33. In addition, where the note is “368.15 K”, the activity coefficient came out at 3.84 ± 0.33.
